The values below come from ChEMBL document CHEMBL3132747, “Design and synthesis of a novel series of N,4-diphenylpyrimidin-2-amine derivatives as potent and selective PI3K inhibitors” (Medchemcomm, 2014).

The subject of assay [1] is HeLa. Briefly: Anticancer activity against human HeLa cells by MTT assay. Format: functional, cell-based. For orientation: Tetrazolium assays rely on reduction of a dye to a coloured formazan, in cell work by metabolically active cells.
The test system of assay [2] is A549. Briefly: Anticancer activity against human A549 cells by MTT assay. Format: functional, cell-based.
Assay [3] deals with MCF7. Briefly: Anticancer activity against human MCF7 cells by MTT assay. Format: functional, cell-based.
Assay [4] relates to HepG2. Briefly: Anticancer activity against human HepG2 cells by MTT assay. Format: functional, cell-based.
Assay [5] deals with Phosphatidylinositol 4,5-bisphosphate 3-kinase catalytic subunit beta isoform (Homo sapiens, UniProt P42338). Briefly: Inhibition of human PI3Kbeta.
Sequence of Phosphatidylinositol 4,5-bisphosphate 3-kinase catalytic subunit beta isoform (P42338 whole entry, canonical isoform): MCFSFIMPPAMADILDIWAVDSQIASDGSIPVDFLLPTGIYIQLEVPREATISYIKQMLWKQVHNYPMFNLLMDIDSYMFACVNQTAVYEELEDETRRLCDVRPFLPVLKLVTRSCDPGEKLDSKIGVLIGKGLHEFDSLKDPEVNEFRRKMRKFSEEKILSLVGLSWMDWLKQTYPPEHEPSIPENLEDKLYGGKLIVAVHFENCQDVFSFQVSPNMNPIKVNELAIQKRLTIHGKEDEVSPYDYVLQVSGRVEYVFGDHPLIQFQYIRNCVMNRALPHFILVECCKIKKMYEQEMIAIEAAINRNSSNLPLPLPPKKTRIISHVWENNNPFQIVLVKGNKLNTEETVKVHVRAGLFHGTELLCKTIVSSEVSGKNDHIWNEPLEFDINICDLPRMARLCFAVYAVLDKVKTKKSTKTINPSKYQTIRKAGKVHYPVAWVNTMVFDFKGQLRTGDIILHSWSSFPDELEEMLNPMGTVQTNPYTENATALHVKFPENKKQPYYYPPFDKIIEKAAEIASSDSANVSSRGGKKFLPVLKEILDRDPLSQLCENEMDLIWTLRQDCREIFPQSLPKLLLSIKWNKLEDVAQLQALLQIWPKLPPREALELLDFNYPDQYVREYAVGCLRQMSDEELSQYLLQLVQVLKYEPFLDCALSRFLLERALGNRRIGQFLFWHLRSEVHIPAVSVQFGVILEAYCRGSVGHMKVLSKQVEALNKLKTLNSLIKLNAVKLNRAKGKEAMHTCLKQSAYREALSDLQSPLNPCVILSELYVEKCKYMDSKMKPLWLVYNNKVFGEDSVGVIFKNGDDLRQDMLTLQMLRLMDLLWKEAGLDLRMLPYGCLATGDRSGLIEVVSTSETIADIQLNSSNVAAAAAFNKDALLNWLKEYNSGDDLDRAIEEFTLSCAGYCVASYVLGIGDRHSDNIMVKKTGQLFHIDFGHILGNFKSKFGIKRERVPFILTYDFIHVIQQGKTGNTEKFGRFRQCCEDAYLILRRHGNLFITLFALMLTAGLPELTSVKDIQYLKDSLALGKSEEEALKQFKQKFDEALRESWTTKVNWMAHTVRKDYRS
Assay [6] concerns the target Phosphatidylinositol 4,5-bisphosphate 3-kinase catalytic subunit gamma isoform (Homo sapiens, UniProt P48736). Briefly: Inhibition of human PI3Kgamma.
Assay [7] addresses Phosphatidylinositol 4,5-bisphosphate 3-kinase catalytic subunit alpha isoform (Homo sapiens, UniProt P42336). In words: Inhibition of human PI3Kalpha.

Sequence of Phosphatidylinositol 4,5-bisphosphate 3-kinase catalytic subunit gamma isoform (P48736 whole entry, canonical isoform): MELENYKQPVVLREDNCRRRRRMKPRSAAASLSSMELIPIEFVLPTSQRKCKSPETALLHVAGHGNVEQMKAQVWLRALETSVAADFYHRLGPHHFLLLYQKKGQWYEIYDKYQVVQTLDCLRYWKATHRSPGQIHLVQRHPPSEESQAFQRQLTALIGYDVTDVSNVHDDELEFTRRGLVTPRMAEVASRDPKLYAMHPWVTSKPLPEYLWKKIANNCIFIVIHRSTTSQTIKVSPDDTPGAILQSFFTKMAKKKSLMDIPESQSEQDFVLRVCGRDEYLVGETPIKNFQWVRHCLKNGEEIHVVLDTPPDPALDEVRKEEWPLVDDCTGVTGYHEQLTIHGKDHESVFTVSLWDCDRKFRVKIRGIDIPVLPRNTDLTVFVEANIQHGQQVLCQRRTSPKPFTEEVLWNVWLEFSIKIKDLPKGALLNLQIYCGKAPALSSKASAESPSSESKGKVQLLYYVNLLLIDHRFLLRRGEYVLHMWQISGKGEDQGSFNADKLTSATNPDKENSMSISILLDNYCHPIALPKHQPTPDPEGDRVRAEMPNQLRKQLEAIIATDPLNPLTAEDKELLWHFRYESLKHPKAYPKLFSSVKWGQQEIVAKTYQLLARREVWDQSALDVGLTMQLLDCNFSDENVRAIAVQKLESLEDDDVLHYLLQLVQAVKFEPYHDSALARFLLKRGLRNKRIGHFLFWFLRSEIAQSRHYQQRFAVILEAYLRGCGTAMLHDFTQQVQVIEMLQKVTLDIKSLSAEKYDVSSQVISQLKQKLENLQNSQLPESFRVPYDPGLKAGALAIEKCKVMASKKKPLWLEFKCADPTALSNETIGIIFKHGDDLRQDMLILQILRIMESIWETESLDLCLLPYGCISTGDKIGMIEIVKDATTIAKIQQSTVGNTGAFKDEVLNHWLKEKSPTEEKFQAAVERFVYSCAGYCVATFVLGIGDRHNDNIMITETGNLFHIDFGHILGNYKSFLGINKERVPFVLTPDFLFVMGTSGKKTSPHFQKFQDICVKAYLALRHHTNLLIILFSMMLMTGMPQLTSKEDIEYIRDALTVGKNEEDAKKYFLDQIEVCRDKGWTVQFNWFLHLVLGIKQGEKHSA
Sequence of Phosphatidylinositol 4,5-bisphosphate 3-kinase catalytic subunit alpha isoform (P42336 whole entry, canonical isoform): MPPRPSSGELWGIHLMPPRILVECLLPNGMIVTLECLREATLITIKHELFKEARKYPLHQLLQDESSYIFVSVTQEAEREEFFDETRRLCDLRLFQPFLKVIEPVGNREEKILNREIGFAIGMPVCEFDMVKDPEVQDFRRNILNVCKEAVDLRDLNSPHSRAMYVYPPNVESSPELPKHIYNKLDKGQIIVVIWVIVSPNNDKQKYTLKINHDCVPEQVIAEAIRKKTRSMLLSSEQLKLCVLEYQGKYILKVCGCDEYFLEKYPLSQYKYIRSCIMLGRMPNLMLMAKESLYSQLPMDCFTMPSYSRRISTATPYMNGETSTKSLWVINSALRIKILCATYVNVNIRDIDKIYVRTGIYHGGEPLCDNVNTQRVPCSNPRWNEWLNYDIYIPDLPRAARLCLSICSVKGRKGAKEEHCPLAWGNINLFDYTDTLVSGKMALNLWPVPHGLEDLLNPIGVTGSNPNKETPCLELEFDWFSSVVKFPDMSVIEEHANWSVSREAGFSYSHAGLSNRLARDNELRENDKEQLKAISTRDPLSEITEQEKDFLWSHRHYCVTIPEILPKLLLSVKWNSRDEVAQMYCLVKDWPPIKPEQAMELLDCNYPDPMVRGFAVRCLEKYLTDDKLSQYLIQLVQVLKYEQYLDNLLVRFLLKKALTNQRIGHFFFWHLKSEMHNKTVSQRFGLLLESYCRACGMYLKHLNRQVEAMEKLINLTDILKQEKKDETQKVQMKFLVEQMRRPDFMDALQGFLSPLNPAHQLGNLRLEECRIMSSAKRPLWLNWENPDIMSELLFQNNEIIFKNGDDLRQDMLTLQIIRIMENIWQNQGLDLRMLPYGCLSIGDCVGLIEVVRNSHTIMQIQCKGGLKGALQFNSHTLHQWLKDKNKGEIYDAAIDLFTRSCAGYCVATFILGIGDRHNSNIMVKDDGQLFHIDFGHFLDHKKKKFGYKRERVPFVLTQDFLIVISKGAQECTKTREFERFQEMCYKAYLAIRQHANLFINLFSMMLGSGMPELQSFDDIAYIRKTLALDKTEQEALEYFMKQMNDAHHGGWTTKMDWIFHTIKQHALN

`Cc1ccc(-c2ccnc(Nc3ccc(Cl)cc3Cl)n2)cc1`: the IC50 was 91.5 µM in assay [1]; 164 µM in assay [2]; more than 1000 µM in assay [3]; 344 µM in assay [4]; more than 1 µM in assay [5]; 0.371 µM in assay [6] (read-out: IC50). Also, the IC50 was 0.371 µM in assay [6] (read-out: pIC50 (converted)) and more than 1 µM in assay [7].

In the case of `O=[N+]([O-])c1ccc(Nc2nccc(-c3ccc(Cl)c(Cl)c3)n2)cc1`, the IC50 in assay [1] amounted to 1.84 µM; in assay [2] it was 0.72 µM; in assay [3], 3.51 µM; in assay [4], 0.5 µM; in assay [5] it was 0.573 µM; in assay [6] (read-out: IC50) it was 0.154 µM. In addition, the IC50 was 0.154 µM in assay [6] (read-out: pIC50 (converted)) and 0.503 µM in assay [7].

On to `COc1cccc(Nc2nccc(-c3ccc(Br)cc3)n2)c1`, for which the IC50 in assay [1] stood at 153 µM; in assay [2], 82.7 µM; in assay [3], 278 µM; in assay [4] it was 148 µM; in assay [5] it was 0.977 µM; in assay [6] (read-out: IC50), 0.357 µM. Besides, the IC50 in assay [6] (read-out: pIC50 (converted)) was 0.357 µM; in assay [7], more than 1 µM.

Consider `Clc1ccc(Nc2nccc(-c3ccc(Br)cc3)n2)c(Cl)c1`, for which the IC50 in assay [1] is 1.08 µM; in assay [2], 3.78 µM; in assay [3], 2.49 µM; in assay [4] it was 0.72 µM; in assay [5] it was 0.673 µM; in assay [6] (read-out: IC50), 0.231 µM. Also, the IC50 is 0.231 µM in assay [6] (read-out: pIC50 (converted)) and 0.591 µM in assay [7].

For `COc1ccc(-c2ccnc(Nc3cccc(OC)c3)n2)cc1`, the IC50 in assay [1] was found to be 0.55 µM; in assay [2], 6.53 µM; in assay [3], 3.45 µM; in assay [4], 13.9 µM; in assay [5], 0.729 µM; in assay [6] (read-out: IC50) it was 0.195 µM. The IC50 was 0.195 µM in assay [6] (read-out: pIC50 (converted)) and 0.615 µM in assay [7].

Consider `Clc1ccc(Nc2nccc(-c3ccc(Cl)c(Cl)c3)n2)c(Cl)c1`, for which the IC50 was determined as 23 µM in assay [1]; 26 µM in assay [2]; 45.6 µM in assay [3]; 28.4 µM in assay [4]; 0.926 µM in assay [5]; 0.25 µM in assay [6] (read-out: IC50). In addition, the IC50 was 0.25 µM in assay [6] (read-out: pIC50 (converted)) and 0.836 µM in assay [7].

In the case of `COc1ccc(-c2ccnc(Nc3ccc(Cl)cc3)n2)cc1`, the IC50 came out at 0.31 µM in assay [1]; 20.9 µM in assay [2]; 0.81 µM in assay [3]; 4.5 µM in assay [4]; 0.603 µM in assay [5]; 0.167 µM in assay [6] (read-out: IC50). The IC50 in assay [6] (read-out: pIC50 (converted)) is 0.167 µM; in assay [7] it was 0.552 µM.

With `Cc1cccc(Nc2nccc(-c3ccc(Cl)cc3Cl)n2)c1`, the IC50 was determined as 7.66 µM in assay [1]; 18.4 µM in assay [2]; 249 µM in assay [3]; 13.2 µM in assay [4]; 0.851 µM in assay [5]; 0.274 µM in assay [6] (read-out: IC50). The IC50 in assay [6] (read-out: pIC50 (converted)) is 0.274 µM; in assay [7] it was 0.813 µM.

Consider `COc1cccc(Nc2nccc(-c3ccc(Cl)c(Cl)c3)n2)c1`, for which the IC50 in assay [1] came out at 4.97 µM; in assay [2] it was 6 µM; in assay [3] it was 21 µM; in assay [4], 3.37 µM; in assay [5], 0.741 µM; in assay [6] (read-out: IC50), 0.217 µM. Further, the IC50 was 0.217 µM in assay [6] (read-out: pIC50 (converted)) and 0.625 µM in assay [7].

For `COc1cccc(Nc2nccc(-c3ccc(F)cc3)n2)c1`, the IC50 was 145 µM in assay [1]; 35.9 µM in assay [2]; 412 µM in assay [3]; 128 µM in assay [4]; more than 1 µM in assay [5]; 0.334 µM in assay [6] (read-out: IC50). Besides, the IC50 was 0.334 µM in assay [6] (read-out: pIC50 (converted)) and 0.88 µM in assay [7].

Regarding `O=[N+]([O-])c1ccc(Nc2nccc(-c3ccc(Cl)cc3Cl)n2)cc1`, the IC50 in assay [1] came out at 168 µM; in assay [2], 119 µM; in assay [3], 192 µM; in assay [4], 99.3 µM; in assay [5], 0.938 µM; in assay [6] (read-out: IC50), 0.386 µM. The IC50 in assay [6] (read-out: pIC50 (converted)) was 0.386 µM; in assay [7], 0.953 µM.

In the case of `COc1ccc(-c2ccnc(Nc3ccc(Cl)cc3Cl)n2)cc1`, the IC50 came to 23 µM in assay [1]; 7.33 µM in assay [2]; 4.17 µM in assay [3]; 0.19 µM in assay [4]; 0.839 µM in assay [5]; 0.235 µM in assay [6] (read-out: IC50). Moreover, the results for the IC50 in assay [6] (read-out: pIC50 (converted)) and in assay [7] were 0.235 µM and 0.738 µM, respectively.

On to `COc1ccc(-c2ccnc(Nc3ccc([N+](=O)[O-])cc3)n2)cc1`, for which the IC50 worked out at 0.98 µM in assay [1]; 2.73 µM in assay [2]; 0.77 µM in assay [3]; 1.04 µM in assay [4]; 0.537 µM in assay [5]; 0.143 µM in assay [6] (read-out: IC50). In addition, the IC50 in assay [6] (read-out: pIC50 (converted)) was 0.143 µM; in assay [7], 0.527 µM.

As for `Nc1nc(N)c2nc(-c3cccc(O)c3)cnc2n1`, the IC50 in assay [1] stood at 0.15 µM; in assay [2], 0.49 µM; in assay [3] it was 1.03 µM; in assay [4], 0.82 µM.

For the compound `Clc1ccc(Nc2nccc(-c3ccc(Cl)cc3Cl)n2)c(Cl)c1`, the IC50 turned out to be 1.56 µM in assay [1]; 11.6 µM in assay [2]; 3.18 µM in assay [3]; 8.08 µM in assay [4]; 0.799 µM in assay [5]; 0.268 µM in assay [6] (read-out: IC50). For the same compound, the IC50 in assay [6] (read-out: pIC50 (converted)) was 0.268 µM; in assay [7], 0.772 µM.

Regarding `Clc1ccc(Nc2nccc(-c3ccc(Br)cc3)n2)cc1`, the IC50 in assay [1] was 36.7 µM; in assay [2], 6.11 µM; in assay [3] it was 4.18 µM; in assay [4], 47.5 µM; in assay [5] it was 0.946 µM; in assay [6] (read-out: IC50) it was 0.302 µM. Further, the figures for the IC50 in assay [6] (read-out: pIC50 (converted)) and in assay [7] were 0.302 µM and 0.914 µM, respectively.

Regarding `O=[N+]([O-])c1ccc(Nc2nccc(-c3ccc(F)cc3)n2)cc1`, the IC50 in assay [1] amounted to 3.51 µM; in assay [2], 84 µM; in assay [3], 0.4 µM; in assay [4], 7.95 µM; in assay [5], 0.863 µM; in assay [6] (read-out: IC50) it was 0.247 µM. Further, the IC50 in assay [6] (read-out: pIC50 (converted)) was 0.247 µM; in assay [7], 0.679 µM.

`COc1cccc(Nc2nccc(-c3ccc(Cl)cc3Cl)n2)c1`: the IC50 in assay [1] was 76.4 µM; in assay [2], 32.2 µM; in assay [3], 192 µM; in assay [4], 96.9 µM; in assay [5], 0.893 µM; in assay [6] (read-out: IC50) it was 0.278 µM. Moreover, the IC50 in assay [6] (read-out: pIC50 (converted)) was 0.278 µM; in assay [7], 0.851 µM.

For `CC(C)c1ccccc1Nc1nccc(-c2ccc(Br)cc2)n1`, the IC50 in assay [1] stood at 11.5 µM; in assay [2] it was 3.71 µM; in assay [3], 111 µM; in assay [4], 7.03 µM; in assay [5] it was 0.874 µM; in assay [6] (read-out: IC50), 0.313 µM. In addition, the results for the IC50 in assay [6] (read-out: pIC50 (converted)) and in assay [7] were 0.313 µM and 0.792 µM, respectively.

Turning to `O=[N+]([O-])c1ccc(Nc2nccc(-c3ccc(Br)cc3)n2)cc1`, the IC50 in assay [1] is 25.7 µM; in assay [2], 76 µM; in assay [3], 681 µM; in assay [4], 43 µM; in assay [5] it was 0.961 µM; in assay [6] (read-out: IC50), 0.265 µM. The values for the IC50 in assay [6] (read-out: pIC50 (converted)) and in assay [7] were 0.265 µM and 0.946 µM, respectively.

For the compound `Cc1cccc(Nc2nccc(-c3ccc(Br)cc3)n2)c1`, the IC50 is 71 µM in assay [1]; 63.2 µM in assay [2]; 210 µM in assay [3]; 74.6 µM in assay [4]; more than 1 µM in assay [5]; 0.342 µM in assay [6] (read-out: IC50). The figures for the IC50 in assay [6] (read-out: pIC50 (converted)) and in assay [7] were 0.342 µM and 0.894 µM, respectively.
